Experiments:
[1] = system: pan HDAC; design: method as in doi:10.1039/D0NJ01274B; settings: read-out: pan HDAC inhibitory activity IC50; cited from earlier work
[2] = system: HL-7702 cells; assay: MTT cytotoxicity assay against normal liver cell line HL-7702; format: cell-based, human; settings: Homo sapiens, L02; MTT assay, normal liver cell line HL-7702, mean of three independent replicates ± SE
Experimental: (§1) Cytotoxic activity was carried out using MTT colorimetric antiproliferative assay to investigate the effect of the prepared molecules on HepG2 as well as HL-7702 cell lines. See Section 4.3.1 in Supplementary Data.
(§2) 4.3.1. Cytotoxic activity evaluation
(§3) To measure the cytotoxic actvity of the amide derivatives 2-6e in hepatocellular carcinoma (HepG2) cell line (ATCC Cat No. HB-8065) as well as normal human liver cell line HL-7702 (ATCC Cat. No. 77402), cell viability assay was assessed using MTT assay method. Cells at density of 1 x 104 were seeded in a 96-well plate at 37 °C for 24 h under 5% CO2. After incubation, the cells were treated with different concentrations of the test schiff bases 2-6e and incubated for 24 h, then 20 µl of MTT solution at 5 mg/mL was applied and incubated for 4 h at 37 °C . Dimethyl sulphoxide (DMSO) in volume of 100 µl was added to each well to dissolve the purple formazan that had formed. The color intensity of the formazan product, which represents the growth condition of the cells, is quantified by using an ELISA plate reader (EXL 800, USA) at 450 nm absorbance. The experimental conditions were carried out with at least three replicates, and the experiments were repeated at least three times. […]

[3] = system: HepG2 cells; assay: MTT cytotoxicity assay against HepG2 cell line; format: cell-based; settings: Homo sapiens, mean of three independent replicates ± SE
Experimental: as §1, §2, §3

[4] = molecular target: T1, β-tubulin (Homo sapiens, UniProt P07437+P68363); assay: Tubulin polymerization inhibition assay (Human Beta-tubulin ELISA kit); format: biochemical; settings: ELISA for β-tubulin, compared with untreated control cells
T1 construct: […]
T1 sequence (P07437 whole entry): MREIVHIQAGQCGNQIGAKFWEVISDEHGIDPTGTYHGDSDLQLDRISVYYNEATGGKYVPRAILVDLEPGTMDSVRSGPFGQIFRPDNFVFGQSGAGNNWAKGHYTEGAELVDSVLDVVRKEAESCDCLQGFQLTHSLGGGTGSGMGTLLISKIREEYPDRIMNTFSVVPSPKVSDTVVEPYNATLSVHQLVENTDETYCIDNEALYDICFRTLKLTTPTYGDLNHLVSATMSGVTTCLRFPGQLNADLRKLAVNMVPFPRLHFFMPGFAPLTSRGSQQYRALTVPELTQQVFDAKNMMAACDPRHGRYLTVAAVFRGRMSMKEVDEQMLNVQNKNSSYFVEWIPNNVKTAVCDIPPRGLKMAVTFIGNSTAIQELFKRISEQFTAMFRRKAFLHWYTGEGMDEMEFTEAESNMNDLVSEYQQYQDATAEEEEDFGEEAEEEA
T1 sequence (P68363 whole entry): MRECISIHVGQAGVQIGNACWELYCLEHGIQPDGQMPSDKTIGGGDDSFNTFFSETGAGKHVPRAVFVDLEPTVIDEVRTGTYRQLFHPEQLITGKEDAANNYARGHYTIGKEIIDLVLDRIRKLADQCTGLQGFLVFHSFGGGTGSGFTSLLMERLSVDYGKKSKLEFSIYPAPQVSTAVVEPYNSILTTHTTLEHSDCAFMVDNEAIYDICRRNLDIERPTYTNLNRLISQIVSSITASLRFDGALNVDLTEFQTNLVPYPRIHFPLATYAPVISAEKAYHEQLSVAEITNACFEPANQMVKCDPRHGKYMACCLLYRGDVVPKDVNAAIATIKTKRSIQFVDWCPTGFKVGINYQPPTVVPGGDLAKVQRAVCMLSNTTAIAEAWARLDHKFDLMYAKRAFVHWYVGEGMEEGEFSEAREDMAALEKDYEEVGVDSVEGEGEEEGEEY
Experimental: See Section 4.3.3 in Supplementary Data.
4.3.3. Tubulin inhibitions Assay […]
manufacturer’s instructions using # abcam Human Beta-tubulin simplestep ELISA Kit […]
Cell cycle analysis in HepG2 cells was investigated using fluorescent Annexin V - FITC/ PI detection kit (BioVision EZCellTM Cell Cycle Analysis Kit Catalog #K920) […]
After treatment, cells were washed twice in PBS, fixed in 70% ethanol, rinsed again with PBS. Cells were collected by centrifugation at 2000 rpm for 5 min and stained with DNA […]
The samples were immediately analyzed using Facs Calibur flow cytometer (Becton and Dickinson, Heidelberg, Germany).
Apoptosis in HepG2 cells was investigated using fluorescent Annexin V-FITC/ PI detection kit (BioVision Annexin V-FITC Apoptosis Detection Kit, Catalog #: K101) […]
immediately analyzed using FACS Calibur flow cytometer (Becton and Dickinson, […]
Caspase 3/7 in HepG2 cells was investigated using CellEvent® Caspase 3/7 Green Detection Flow Cytometry Assay Kit. Caspase 3/7 activity in HepG2 cell line was […]
CellEvent® caspase 3/7 green detection flow cytometry assay kit according to manufacturer’s directions. […]
harvested and washed with ice cold PBS, and cell lysates were prepared and […]

[5] = system: HDAC1; settings: cited from earlier work

Row | melting point [°C] | Compound | IC50 [3] [µM] | also measured
1 | 270 to 272 | COc1cc(C(=O)NC(=Cc2ccco2)C(=O)Nc2ccc3ccccc3c2)cc(OC)c1OC (hydrate or solvate) [Compound 3, N-(1-(furan-2-yl)-3-(naphthalen-2-ylamino)-3-oxoprop-1-en-2-yl)-3,4,5-trimethoxybenzamide] |  | 
2 |  | Nc1ccccc1NC(=O)c1cnccn1 [BG45] |  | IC50 [1]: 5.51 µM
3 |  | COc1ccc(/C=C\c2cc(OC)c(OC)c(OC)c2)cc1O [CA-4, combretastatin A-4, reference compound] | 0.54 ± 0.04 | IC50 [2]: 8.86 ± 0.67 µM; tubulin polymerization percentage inhibition [4]: 88.72%
4 | 248 to 250 | COc1cc(C(=O)NC(=Cc2ccco2)C(=O)Nc2cccc(Cl)c2)cc(OC)c1OC [Compound 2a, N-(3-(3-chlorophenylamino)-1-(furan-2-yl)-3-oxoprop-1-en-2-yl)-3,4,5-trimethoxybenzamide] | 68.9 ± 3.32 | 
5 | 241 to 243 | COc1cc(C(=O)NC(=Cc2ccco2)C(=O)Nc2ccc(Cl)cc2)cc(OC)c1OC [Compound 2b, N-(3-(4-chlorophenylamino)-1-(furan-2-yl)-3-oxoprop-1-en-2-yl)-3,4,5-trimethoxybenzamide] | 23.3 ± 1.03 | 
6 | 261 to 263 | COc1cc(C(=O)NC(=Cc2ccco2)C(=O)Nc2ccc(C)cc2)cc(OC)c1OC [Compound 2c, N-(1-(furan-2-yl)-3-oxo-3-(p-tolylamino)prop-1-en-2-yl)-3,4,5-trimethoxybenzamide] | 22 ± 0.96 | 
7 |  | COc1cc(C(=O)NC(=Cc2ccco2)C(=O)Nc2ccc3ccccc3c2)cc(OC)c1OC [Compound 3, N-(1-(furan-2-yl)-3-(naphthalen-2-ylamino)-3-oxoprop-1-en-2-yl)-3,4,5-trimethoxybenzamide] | 16.2 ± 0.79 | 
8 | 235 to 237 | COc1cc(C(=O)NC(=Cc2ccco2)C(=O)NNC(=O)c2cccc(O)c2)cc(OC)c1OC [Compound 4a, N-(1-(furan-2-yl)-3-(2-(3-hydroxybenzoyl)hydrazinyl)-3-oxoprop-1-en-2-yl)-3,4,5-trimethoxybenzamide] | 13.4 ± 0.56 | 
9 | 228 to 230 | COc1cc(C(=O)NC(=Cc2ccco2)C(=O)NNC(=O)c2ccncc2)cc(OC)c1OC [Compound 4b, N-(1-(furan-2-yl)-3-(2-isonicotinoylhydrazinyl)-3-oxoprop-1-en-2-yl)-3,4,5-trimethoxybenzamide] | 8.36 ± 0.51 | 
10 | 217 to 219 | COc1cc(C(=O)NC(=Cc2ccco2)C(=O)NNC(=O)c2ccc(NC(=O)c3cccnc3)cc2)cc(OC)c1OC [Compound 5, N-(4-(2-(3-(furan-2-yl)-2-(3,4,5 trimethoxybenzamido)acryloyl)hydrazinecarbonyl)phenyl)nicotinamide] | 3.25 ± 0.25 | 
11 | 223 to 225 | COc1cc(C(=O)NC(=Cc2ccc(C#N)cc2)C(=O)NNC(=O)/C(=C/c2ccco2)NC(=O)c2cc(OC)c(OC)c(OC)c2)cc(OC)c1OC [Compound 6b, N-((1Z)-3-(2-(3-(4-cyanophenyl)-2-(3,4,5-trimethoxybenzamido)acryloyl)hydrazinyl)-1-(furan-2-yl)-3-oxoprop-1-en-2-yl)-3,4,5-trimethoxybenzamide] | 0.92 ± 0.1 | IC50 [2]: 11.1 ± 0.18 µM
12 | 215 to 217 | COc1cc(C(=O)NC(=Cc2ccc(N(C)C)cc2)C(=O)NNC(=O)/C(=C/c2ccco2)NC(=O)c2cc(OC)c(OC)c(OC)c2)cc(OC)c1OC [Compound 6c, N-((1Z)-3-(2-(3-(4-(dimethylamino)phenyl)-2-(3,4,5-trimethoxybenzamido)acryloyl)hydrazinyl)-1-(furan-2-yl)-3-oxoprop-1-en-2-yl)-3,4,5-trimethoxybenzamide] | 1.12 ± 0.12 | IC50 [2]: 9.88 ± 0.14 µM
13 | 206 to 208 | COc1ccc(C=C(NC(=O)c2cc(OC)c(OC)c(OC)c2)C(=O)NNC(=O)/C(=C/c2ccco2)NC(=O)c2cc(OC)c(OC)c(OC)c2)cc1 [Compound 6d, N-(3-(2-((Z)-3-(furan-2-yl)-2-(3,4,5-trimethoxybenzamido)acryloyl)hydrazinyl)-1-(4-methoxyphenyl)-3-oxoprop-1-en-2-yl)-3,4,5-trimethoxybenzamide] | 3.81 ± 0.18 | 
14 | 212 to 214 | COc1cc(C=C(NC(=O)c2cc(OC)c(OC)c(OC)c2)C(=O)NNC(=O)/C(=C/c2ccco2)NC(=O)c2cc(OC)c(OC)c(OC)c2)cc(OC)c1OC [Compound 6e, N-(3-(2-((Z)-3-(furan-2-yl)-2-(3,4,5-trimethoxybenzamido)acryloyl)hydrazinyl)-3-oxo-1-(3,4,5-trimethoxyphenyl)prop-1-en-2-yl)-3,4,5-trimethoxybenzamide] | 3.98 ± 0.09 | 
15 |  | Nc1ccccc1NC(=O)c1ccc(C(C(=O)Nc2ccccc2)C(=O)Nc2ccccc2)cc1 [III] |  | fold potency for HDAC1 compared with HDAC2 [5]: 10 fold; fold potency for HDAC1 compared with HDAC3 [5]: 20 fold
16 |  | Cc1ccc(/C=N/NC(=O)c2ccc(NC(=O)c3cccnc3)cc2)cc1 [IV] |  | IC50 [1]: 4.65 µM
17 |  | O=C(CCCCCCC(=O)Nc1ccccc1)NO [SAHA, suberoylanilide hydroxamic acid, reference compound] | 2.91 ± 0.15 | 

Reference: PMC9227250, “Design, Synthesis and Cytotoxic Activity Evaluation of Newly Synthesized Amides-Based TMP Moiety as Potential Anticancer Agents over HepG2 Cells” (Molecules, 2022)
